Laboratory results as given in PubChem BioAssay AID651581 (Sanford-Burnham Center for Chemical Genomics, 2012).
The source made the active and inactive calls. How the calls were made is not given here.

Legend:
[1] = biological target: Hypoxia-inducible factor 1-alpha (Homo sapiens) (UniProt Q16665); assay: potency against HIF reporters across cell lines – luminescence, panel, selectivity assay for HIF-2a inhibitor project, dose response (AID 651581); settings: human cell HIF reporter, HIF-1a
[2] = biological target: Endothelial PAS domain-containing protein 1 (Homo sapiens) (UniProt Q99814); assay: as above; settings: human cell HIF reporter

Sequence of Hypoxia-inducible factor 1-alpha (Homo sapiens) (Q16665 whole entry, looked up, the tested form may be a part): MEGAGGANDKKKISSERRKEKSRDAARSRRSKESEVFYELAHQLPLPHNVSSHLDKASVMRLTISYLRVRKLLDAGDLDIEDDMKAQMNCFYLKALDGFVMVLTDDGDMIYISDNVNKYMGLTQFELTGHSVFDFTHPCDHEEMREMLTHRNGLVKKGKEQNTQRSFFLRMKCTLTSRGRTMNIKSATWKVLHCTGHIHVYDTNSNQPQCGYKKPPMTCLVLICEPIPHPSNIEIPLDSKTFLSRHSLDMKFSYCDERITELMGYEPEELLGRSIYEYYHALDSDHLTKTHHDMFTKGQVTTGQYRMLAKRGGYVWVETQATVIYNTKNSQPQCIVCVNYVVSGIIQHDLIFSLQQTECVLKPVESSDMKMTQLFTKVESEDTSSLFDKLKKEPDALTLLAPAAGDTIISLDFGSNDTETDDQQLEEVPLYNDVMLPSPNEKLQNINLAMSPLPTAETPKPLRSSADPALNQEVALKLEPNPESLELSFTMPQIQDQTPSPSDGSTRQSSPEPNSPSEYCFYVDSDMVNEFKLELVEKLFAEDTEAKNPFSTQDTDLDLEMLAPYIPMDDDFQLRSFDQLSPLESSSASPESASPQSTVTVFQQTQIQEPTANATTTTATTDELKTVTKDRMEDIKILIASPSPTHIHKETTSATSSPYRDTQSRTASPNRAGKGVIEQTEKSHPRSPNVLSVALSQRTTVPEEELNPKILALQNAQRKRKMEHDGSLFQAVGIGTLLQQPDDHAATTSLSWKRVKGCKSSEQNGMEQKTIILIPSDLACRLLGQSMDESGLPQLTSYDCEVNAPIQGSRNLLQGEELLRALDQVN

Structure (SMILES)	IC50 ([1]; mean of runs)	IC50 ([1]; run 1) [µM]	IC50 ([1]; run 2) [µM]	IC50 ([2]; HIF-2a PANC, run 1) [µM]	IC50 ([2]; HIF-2a PANC, run 2) [µM]	IC50 ([2]; HIF-2a, mean of runs)	IC50 ([2]; HIF-2a, run 1) [µM]	IC50 ([2]; HIF-2a, run 2) [µM]	IC50 ([2]; HIF-2a PANC, mean of runs)
COc1ccc(OCc2cccc(C(=O)O)c2)cc1	26.3 µM	19	33.7	> 99	< 30	0.781 µM	0.76	0.802	–
CCOc1ccc(OCc2cccc(C(=O)N/N=C/c3cccnc3)c2)cc1	–	> 99	> 99	16.7	12	2.03 µM	2.13	1.94	inactive
Cc1nc(SCc2cccc(C(=O)O)c2)nc2c1CCCC2	10.5 µM	3.9	17	7.09	65.6	1.05 µM	1.28	0.826	inactive
Cc1nc2cc(-c3ccccc3)nn2c(C)c1CCC(=O)NCc1ccco1	–	> 99	> 99	6.92	2.62	1.81 µM	1.52	2.1	4.77 µM
COc1ccccc1C(C[N+](=O)[O-])c1c(N)n(C)c(=O)n(C)c1=O (stereo not given)	inactive	20.9	16.9	> 99	51.9	9.86 µM	10.2	9.56	–
O=C(O)c1cccc(NC(=S)NC(=O)c2ccc3ccccc3c2)c1	–	> 99	> 99	< 30	> 99	inactive	10.9	9.32	–
CC(C)(C)c1ccc(-c2noc(CCC(N)=O)n2)cc1	–	> 99	> 99	< 1	< 0.3	< 0.3 µM	< 0.3	< 0.3	< 0.3 µM
CCOc1ccc(OCc2cccc(C(=O)N3CCOCC3)c2)cc1	–	> 99	> 99	> 99	> 99	–	7.59	< 30	> 99 µM (inactive)
CC(C)c1ccc(/C=N/Nc2ccc(C(=O)O)cc2)cc1	24.8 µM	28	21.7	< 3	< 1	–	7.97	< 0.19	< 1 µM
COC(=O)CCCNC(=O)CCc1nnc(-c2ccc(-c3ccccc3)cc2)o1	–	> 99	> 99	> 99	21.3	2.82 µM	3.04	2.6	–
O=C(O)c1ccc(N/N=C/c2ccc3ncccc3c2)cc1	inactive	18.8	16.8	> 99	19.3	–	< 30	> 99	–
CC(=O)Nc1ccc(OS(=O)(=O)c2c(C)cc(C)cc2C)cc1	64.6 µM	80	49.2	> 99	> 99	inactive	12.5	10.9	> 99 µM (inactive)
CNC(=O)NC(=O)COC(=O)CCCSc1nc2ccccc2s1	inactive	6.15	8.11	15.8	5.59	4.96 µM	5.6	4.32	10.7 µM
Cc1nnnn1/C(=C\c1ccccc1)C(=O)OCC(=O)Nc1cccc(S(=O)(=O)N(C)C)c1	inactive	13.5	18.5	> 99	24.2	8.61 µM	8.32	8.9	–
Nc1ccc2oc(-c3cc(Br)ccc3Cl)nc2c1	–	69.1	> 99	0.52	0.492	1.1 µM	1.08	1.13	0.506 µM
CCOC(=O)c1cccc(NC(=O)/C=C/c2ccc3c(c2)OCO3)c1	inactive	25.4	27.5	42.7	> 99	inactive	18.6	14.7	–
N#C/C(=C\c1ccccc1)C(=O)N(c1ccccn1)C1CCCCC1	inactive	25.8	24.7	98.1	71.2	inactive	14.9	13.7	inactive
Cc1c(CCC(=O)N2CCC(C(=O)O)(c3ccccc3)CC2)c(=O)oc2cc3oc4c(c3cc12)CCCC4	5.97 µM	7.31	4.63	3.77	2.49	1.41 µM	1.57	1.24	3.13 µM
